The values that follow come from publication PMC9132982, “Inhibitory role of proguanil on the growth of bladder cancer via enhancing EGFR degradation and inhibiting its downstream signaling pathway to induce autophagy” (Cell Death & Disease, 2022).

The target in the test is epidermal growth factor receptor (EGFR) (Homo sapiens, UniProt P00533). The test can be described thus: SPRi with photo-crosslinked immobilized proguanil capturing proteins from T24 cell lysate, identified by LC-MS; no Kd. The format is cell-based.
Chain of epidermal growth factor receptor (EGFR) (P00533 25-1210): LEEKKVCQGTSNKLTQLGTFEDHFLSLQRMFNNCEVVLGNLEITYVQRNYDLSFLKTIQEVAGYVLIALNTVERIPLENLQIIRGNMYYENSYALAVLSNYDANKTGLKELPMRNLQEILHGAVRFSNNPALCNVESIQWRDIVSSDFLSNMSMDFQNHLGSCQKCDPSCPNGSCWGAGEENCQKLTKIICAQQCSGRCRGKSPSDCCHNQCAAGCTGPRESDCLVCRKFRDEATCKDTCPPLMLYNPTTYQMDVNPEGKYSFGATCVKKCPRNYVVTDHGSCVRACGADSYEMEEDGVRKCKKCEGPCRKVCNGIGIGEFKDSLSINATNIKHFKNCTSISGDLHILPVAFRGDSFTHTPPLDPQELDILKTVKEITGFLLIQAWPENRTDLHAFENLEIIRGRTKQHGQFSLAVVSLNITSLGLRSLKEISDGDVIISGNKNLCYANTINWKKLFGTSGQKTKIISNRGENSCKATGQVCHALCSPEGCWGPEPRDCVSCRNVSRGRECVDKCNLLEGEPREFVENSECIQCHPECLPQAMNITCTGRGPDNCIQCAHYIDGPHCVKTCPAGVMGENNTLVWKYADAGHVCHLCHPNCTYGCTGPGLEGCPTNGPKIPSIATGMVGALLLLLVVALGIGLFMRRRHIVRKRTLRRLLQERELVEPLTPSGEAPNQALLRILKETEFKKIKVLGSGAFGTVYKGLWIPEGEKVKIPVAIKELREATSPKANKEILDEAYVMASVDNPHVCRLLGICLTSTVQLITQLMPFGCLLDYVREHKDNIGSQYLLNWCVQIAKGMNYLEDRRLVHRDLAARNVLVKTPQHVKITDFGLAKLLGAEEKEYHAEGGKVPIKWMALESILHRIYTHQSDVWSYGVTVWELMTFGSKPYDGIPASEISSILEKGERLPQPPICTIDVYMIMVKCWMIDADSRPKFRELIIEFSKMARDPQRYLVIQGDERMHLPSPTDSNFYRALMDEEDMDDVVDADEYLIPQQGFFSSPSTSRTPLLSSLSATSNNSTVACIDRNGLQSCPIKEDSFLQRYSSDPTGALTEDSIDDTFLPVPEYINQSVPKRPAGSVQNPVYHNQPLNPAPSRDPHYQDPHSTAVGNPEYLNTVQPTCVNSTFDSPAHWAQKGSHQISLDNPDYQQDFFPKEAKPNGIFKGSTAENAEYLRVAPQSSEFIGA

Take `[H]/N=C(\N/C(=N/[H])Nc1ccc(Cl)cc1)NC(C)C` [proguanil]: the “SPRi with photo-crosslinked immobilized proguanil capturing proteins from T24 ce” value is “surface plasmon resonance imaging (SPRi) experiments and found that proguanil strongly binds to EGFR (Fig. 1A)”.
